ChEMBL document CHEMBL1201862, “PubChem BioAssay data set” (2004)
Active and inactive are the calls of the source.

Key:
Hexokinase = Hexokinase (Trypanosoma brucei, UniProt Q38C41); test: Confirmation assay for inhibitors of Trypanosoma brucei hexokinase 1-Analogue-first series. [Related pubchem assays (depositor defined):AID1430, AID1632, AID2516, AID2560, AID2579, AID2600, AID449725, AID492951]; format: functional
[1] = molecular target: G-protein coupled receptor 55 (Homo sapiens, UniProt Q9Y2T6); test: GPR55 antagonists blocking LPI-driven arrestin recruitment, primary screen, imaging, U2OS, beta-arrestin-GFP, LPI agonist (AID 2013); format: functional;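 note: antagonist potency measured as reduced agonist-driven arrestin aggregation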
[2] = ZM109 Env clade C HIV-1 fusion inhibitors, dose response, HeLa effector, CEM target cells, luciferase, cherry-pick (AID 652058); format: functional, cell-based
[3] = off-target signal loss in HeLa-CEM21 co-culture – HeLa F-luc CTL cells, cherry-picked, counter-screen for HIV-1 Env fusion inhibitor project, dose response (AID 652040); format: functional, cell-based;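 note: potency for signal decrease marking cytotoxic or nonspecific inhibition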
[4] = inhibitors of HIV Env-driven cell fusion, dose response, cherry-pick (AID 652057); format: functional, cell-based
[5] = molecular target: T1, Mannose-6-phosphate isomerase (Homo sapiens, UniProt P34949); test: human PMI inhibitors, high substrate, primary screen, biochemical, fluorescence intensity, high mannose 6-phosphate (AID 1220)
T1 sequence (P34949 whole entry): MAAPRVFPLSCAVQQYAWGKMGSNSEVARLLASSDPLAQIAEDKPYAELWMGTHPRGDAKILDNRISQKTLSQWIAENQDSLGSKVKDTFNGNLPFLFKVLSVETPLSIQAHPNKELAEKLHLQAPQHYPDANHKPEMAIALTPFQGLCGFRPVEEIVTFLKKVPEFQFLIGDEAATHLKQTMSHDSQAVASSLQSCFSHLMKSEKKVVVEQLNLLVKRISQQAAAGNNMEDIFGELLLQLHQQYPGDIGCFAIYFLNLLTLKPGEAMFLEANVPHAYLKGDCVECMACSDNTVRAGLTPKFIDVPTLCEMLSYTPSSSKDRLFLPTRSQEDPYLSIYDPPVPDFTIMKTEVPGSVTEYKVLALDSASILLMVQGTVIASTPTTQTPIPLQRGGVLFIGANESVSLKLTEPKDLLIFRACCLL

[6] = molecular target: DNA dC->dU-editing enzyme APOBEC-3A (Homo sapiens, UniProt P31941); test: APOBEC3A DNA deaminase inhibitors, dose response, biochemical (AID 504722); format: functional
[7] = molecular target: T1, Mannose-6-phosphate isomerase; test: inhibitors of human PMI, primary screen, biochemical, fluorescence intensity, coupled assay (AID 1209)
[8] = molecular target: DNA dC->dU-editing enzyme APOBEC-3G (Homo sapiens, UniProt Q9HC16); test: Dose Response confirmation of small molecule APOBEC3G DNA Deaminase Inhibitors via a fluorescence-based single-stranded DNA deaminase assay. [Related pubchem assays (depositor defined):AID493012, AID493028]; format: functional
Beta-galactosidase = Beta-galactosidase (Escherichia coli, UniProt Q8VNN2); test: beta-galactosidase enzyme inhibitors and activators, dose response, artefact control for CCR6 antagonist project, biochemical, E. coli enzyme, set 3 (AID 504712); format: functional
Estrogen receptor beta [9] = molecular target: T2, Estrogen receptor beta (Homo sapiens, UniProt Q92731);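 note: recombinant ER-beta bound to coactivator SRC1 peptide in presence of estradiol agonist; inhibitors block coactivator peptide binding and lower the FRET signal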
[10] = molecular target: DNA (cytosine-5)-methyltransferase 1 (Homo sapiens, UniProt P26358); test: DNMT1 methyltransferase inhibitors, confirmation, biochemical, fluorescent molecular beacon (AID 602386); format: functional
[11] = molecular target: Eukaryotic translation initiation factor 4H (Homo sapiens, UniProt Q15056); test: eIF4H inhibition in translation initiation, SAR follow-up (AID 435011); format: functional
[12] = molecular target: T3, Carboxy-terminal domain RNA polymerase II polypeptide A small phosphatase 1 (Homo sapiens, UniProt Q9GZU7); test: inhibitors of CTDSP1, concentration-response testing, biochemical assay, absorbance-based, actives from ultra-high-throughput screening (AID 540297); format: functional
T3 sequence (Q9GZU7 whole entry): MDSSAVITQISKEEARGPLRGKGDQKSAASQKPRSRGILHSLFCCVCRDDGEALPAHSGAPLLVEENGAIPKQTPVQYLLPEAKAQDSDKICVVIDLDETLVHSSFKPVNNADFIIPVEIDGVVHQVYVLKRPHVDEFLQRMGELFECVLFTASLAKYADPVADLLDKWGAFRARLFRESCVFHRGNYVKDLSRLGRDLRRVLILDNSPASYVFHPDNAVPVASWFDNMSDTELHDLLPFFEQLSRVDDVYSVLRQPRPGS

[13] = molecular target: Induced myeloid leukemia cell differentiation protein Mcl-1 (Homo sapiens, UniProt Q07820); format: functional
[14] = molecular target: Polyadenylate-binding protein 1 (Homo sapiens, UniProt P11940); test: PABP inhibition in translation initiation, SAR follow-up (AID 435018); format: functional
Estrogen receptor = molecular target: T4, Estrogen receptor (Homo sapiens, UniProt P03372);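 note: potency for inhibiting coactivator peptide recruitment to the receptor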
T4 sequence (P03372 whole entry): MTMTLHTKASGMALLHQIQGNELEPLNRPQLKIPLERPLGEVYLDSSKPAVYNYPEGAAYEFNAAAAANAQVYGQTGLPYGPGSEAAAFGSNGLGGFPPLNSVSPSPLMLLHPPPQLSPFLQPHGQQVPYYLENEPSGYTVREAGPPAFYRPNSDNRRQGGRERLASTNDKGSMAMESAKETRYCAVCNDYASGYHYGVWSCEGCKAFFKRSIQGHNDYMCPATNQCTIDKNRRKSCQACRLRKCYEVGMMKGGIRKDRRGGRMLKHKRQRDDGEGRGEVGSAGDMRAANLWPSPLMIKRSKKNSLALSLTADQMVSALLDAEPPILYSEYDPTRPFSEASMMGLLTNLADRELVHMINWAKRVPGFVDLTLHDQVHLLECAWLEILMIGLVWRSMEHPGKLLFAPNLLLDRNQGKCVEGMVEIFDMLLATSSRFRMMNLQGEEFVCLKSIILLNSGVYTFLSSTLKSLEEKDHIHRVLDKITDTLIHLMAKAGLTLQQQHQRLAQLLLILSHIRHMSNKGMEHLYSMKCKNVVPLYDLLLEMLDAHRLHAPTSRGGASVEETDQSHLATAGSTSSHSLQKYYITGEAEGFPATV

Estrogen receptor beta [15] = molecular target: T2, Estrogen receptor beta; test: ERβ–SRC-3 coactivator interaction inhibitors, confirmation, orthogonal assay, biochemical, ELISA, streptavidin-HRP readout (AID 1060)
[16] = molecular target: FAD-linked sulfhydryl oxidase ALR (Homo sapiens, UniProt P55789); test: inhibitors of human ALR sulfhydryl oxidase, dose response, biochemical, H2O2 detection, luminescence, cherry-pick (AID 493248)
Genome polyprotein = Genome polyprotein (dengue virus type 2, UniProt P29990); test: Dengue-2 NS5 methyltransferase inhibitors, primary screen, biochemical, confirmation dose response (AID 588689); format: functional
Hexokinase HKDC1 = molecular target: T5, Hexokinase HKDC1 (Homo sapiens, UniProt Q2TB90); test: HKDC1 hexokinase inhibitors, dose response, biochemical, W721R variant (AID 504729); format: functional
T5 sequence (Q2TB90 whole entry): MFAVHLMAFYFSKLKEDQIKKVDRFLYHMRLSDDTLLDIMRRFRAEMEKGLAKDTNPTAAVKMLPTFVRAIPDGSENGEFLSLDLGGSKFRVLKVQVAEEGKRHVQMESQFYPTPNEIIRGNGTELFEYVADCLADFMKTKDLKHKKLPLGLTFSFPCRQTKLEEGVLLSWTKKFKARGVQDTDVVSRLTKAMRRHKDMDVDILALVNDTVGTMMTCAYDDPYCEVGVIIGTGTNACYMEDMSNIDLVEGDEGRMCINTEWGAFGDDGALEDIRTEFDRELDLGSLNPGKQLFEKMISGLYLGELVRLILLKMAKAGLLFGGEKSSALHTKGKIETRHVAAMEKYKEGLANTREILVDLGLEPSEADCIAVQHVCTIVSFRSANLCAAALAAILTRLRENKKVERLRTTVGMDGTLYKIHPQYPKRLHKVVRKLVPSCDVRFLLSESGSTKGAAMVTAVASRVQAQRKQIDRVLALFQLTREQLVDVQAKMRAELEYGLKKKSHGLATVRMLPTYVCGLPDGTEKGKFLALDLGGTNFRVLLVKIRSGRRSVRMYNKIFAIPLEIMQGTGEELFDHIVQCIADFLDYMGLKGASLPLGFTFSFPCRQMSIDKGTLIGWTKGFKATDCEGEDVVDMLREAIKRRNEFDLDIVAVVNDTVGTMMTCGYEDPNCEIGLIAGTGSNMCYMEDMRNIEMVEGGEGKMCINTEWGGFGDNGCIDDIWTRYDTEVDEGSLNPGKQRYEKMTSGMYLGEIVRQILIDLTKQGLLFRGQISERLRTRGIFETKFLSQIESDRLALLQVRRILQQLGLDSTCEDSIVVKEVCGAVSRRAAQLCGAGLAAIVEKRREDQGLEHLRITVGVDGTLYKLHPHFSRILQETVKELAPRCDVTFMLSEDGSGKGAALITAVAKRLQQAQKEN

[17] = molecular target: T6, Lysine-specific demethylase 4C (Homo sapiens, UniProt Q9H3R0); test: GASC-1 (JMJD2C) histone demethylase inhibitors, dose response, biochemical, DELFIA europium, cherry-picked samples (AID 488835); format: functional
T6 sequence (Q9H3R0 whole entry): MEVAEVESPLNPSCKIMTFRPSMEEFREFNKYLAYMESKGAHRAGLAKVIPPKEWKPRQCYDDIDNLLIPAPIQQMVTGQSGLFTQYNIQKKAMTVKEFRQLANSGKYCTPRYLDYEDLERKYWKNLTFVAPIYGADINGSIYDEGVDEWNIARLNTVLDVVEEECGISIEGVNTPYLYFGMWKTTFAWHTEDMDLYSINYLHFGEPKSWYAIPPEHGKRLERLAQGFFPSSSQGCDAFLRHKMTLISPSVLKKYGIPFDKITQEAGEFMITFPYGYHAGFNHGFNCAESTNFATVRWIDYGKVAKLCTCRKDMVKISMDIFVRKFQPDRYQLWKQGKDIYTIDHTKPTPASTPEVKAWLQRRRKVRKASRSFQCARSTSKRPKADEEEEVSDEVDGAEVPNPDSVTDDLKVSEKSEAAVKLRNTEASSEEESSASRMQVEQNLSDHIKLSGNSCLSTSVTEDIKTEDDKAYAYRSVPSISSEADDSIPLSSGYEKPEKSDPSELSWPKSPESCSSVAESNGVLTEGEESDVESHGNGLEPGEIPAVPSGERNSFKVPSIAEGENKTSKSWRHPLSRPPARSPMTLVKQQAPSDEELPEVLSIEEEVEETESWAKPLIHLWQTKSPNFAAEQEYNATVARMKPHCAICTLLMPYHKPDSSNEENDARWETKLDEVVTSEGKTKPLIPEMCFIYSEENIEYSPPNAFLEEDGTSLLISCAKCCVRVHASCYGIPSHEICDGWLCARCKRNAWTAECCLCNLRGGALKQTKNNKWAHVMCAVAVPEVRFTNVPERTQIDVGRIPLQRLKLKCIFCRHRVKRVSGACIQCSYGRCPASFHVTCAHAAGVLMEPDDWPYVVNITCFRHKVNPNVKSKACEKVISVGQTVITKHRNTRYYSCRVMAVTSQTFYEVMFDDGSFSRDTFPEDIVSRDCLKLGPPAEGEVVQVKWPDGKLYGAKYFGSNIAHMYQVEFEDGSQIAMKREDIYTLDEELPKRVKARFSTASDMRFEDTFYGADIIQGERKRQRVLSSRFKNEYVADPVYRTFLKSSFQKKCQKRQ

Vero = Vero cell cytotoxicity, cytotoxicity control for flavivirus capping enzyme inhibitors (AID 588742); format: functional; settings: Chlorocebus sabaeus
[18] = microbe, parasite or virus in culture; format: functional; settings: Mycobacterium tuberculosis
Melanocortin receptor 4 = Melanocortin receptor 4 (Homo sapiens, UniProt P32245); format: functional, cell-based;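 note: Cell-based assay with luminescence read-out, confirmatory dose-response testing for agonist activity of biased ligands at MC4R; human U2OS cells with tagged receptor and beta-arrestin; potency of agonists that increase receptor coupling to beta-arrestin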
[19] = molecular target: T7, Voltage-gated N-type calcium channel alpha-1B subunit/Amyloid beta A4 precursor protein-binding family A member 1 (Homo sapiens, UniProt Q00975+Q02410); format: protein assay
NS3 = NS3 (Hepatitis C virus, UniProt A3EZJ3); test: PubChem AID 2173; parameters: species or system Hepacivirus hominis
[20] = molecular target: T7, Voltage-gated N-type calcium channel alpha-1B subunit/Amyloid beta A4 precursor protein-binding family A member 1; format: protein assay; remark: listed apart in the source

DNA dC->dU-editing enzyme APOBEC-3A, sequence (P31941 whole entry): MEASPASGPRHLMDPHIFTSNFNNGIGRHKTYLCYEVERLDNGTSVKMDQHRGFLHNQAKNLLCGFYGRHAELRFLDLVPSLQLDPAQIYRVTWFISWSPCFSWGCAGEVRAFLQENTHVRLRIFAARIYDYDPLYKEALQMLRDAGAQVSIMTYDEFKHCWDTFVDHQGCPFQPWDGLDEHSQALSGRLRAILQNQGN
G-protein coupled receptor 55, sequence (Q9Y2T6 whole entry, the tested form may be a part): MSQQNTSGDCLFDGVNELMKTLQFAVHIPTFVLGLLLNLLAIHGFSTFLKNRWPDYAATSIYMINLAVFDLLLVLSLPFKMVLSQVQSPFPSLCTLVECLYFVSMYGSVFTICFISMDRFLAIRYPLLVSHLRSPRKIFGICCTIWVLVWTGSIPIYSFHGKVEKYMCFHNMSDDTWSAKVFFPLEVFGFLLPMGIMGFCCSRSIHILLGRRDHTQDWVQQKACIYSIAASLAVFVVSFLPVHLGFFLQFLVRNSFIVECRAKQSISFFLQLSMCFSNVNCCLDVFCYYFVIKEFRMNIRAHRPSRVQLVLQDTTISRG
DNA dC->dU-editing enzyme APOBEC-3G, sequence (Q9HC16 whole entry): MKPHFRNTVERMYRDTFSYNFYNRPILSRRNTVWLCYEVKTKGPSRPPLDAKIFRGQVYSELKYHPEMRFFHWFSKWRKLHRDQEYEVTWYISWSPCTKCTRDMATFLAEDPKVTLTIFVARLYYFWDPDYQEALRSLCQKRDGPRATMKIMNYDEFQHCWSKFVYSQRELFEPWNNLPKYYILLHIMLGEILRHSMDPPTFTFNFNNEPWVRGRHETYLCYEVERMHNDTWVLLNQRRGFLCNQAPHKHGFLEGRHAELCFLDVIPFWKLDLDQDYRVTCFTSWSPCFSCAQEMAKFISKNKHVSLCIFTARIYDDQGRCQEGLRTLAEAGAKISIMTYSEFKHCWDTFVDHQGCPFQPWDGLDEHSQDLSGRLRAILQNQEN
Hexokinase, sequence (Q38C41 whole entry): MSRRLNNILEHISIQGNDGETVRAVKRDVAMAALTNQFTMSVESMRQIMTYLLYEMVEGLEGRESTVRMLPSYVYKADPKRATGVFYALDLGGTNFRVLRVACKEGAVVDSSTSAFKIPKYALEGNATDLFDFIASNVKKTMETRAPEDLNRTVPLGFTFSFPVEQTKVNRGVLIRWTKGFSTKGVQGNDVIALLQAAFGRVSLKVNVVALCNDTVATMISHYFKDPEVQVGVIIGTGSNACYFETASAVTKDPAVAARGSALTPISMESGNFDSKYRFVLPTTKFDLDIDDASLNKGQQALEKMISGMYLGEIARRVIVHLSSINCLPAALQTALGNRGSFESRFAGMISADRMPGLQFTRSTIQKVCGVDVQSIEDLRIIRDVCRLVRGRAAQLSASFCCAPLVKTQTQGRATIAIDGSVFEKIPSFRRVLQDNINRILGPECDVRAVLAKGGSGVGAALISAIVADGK
Beta-galactosidase, sequence (Q8VNN2 whole entry): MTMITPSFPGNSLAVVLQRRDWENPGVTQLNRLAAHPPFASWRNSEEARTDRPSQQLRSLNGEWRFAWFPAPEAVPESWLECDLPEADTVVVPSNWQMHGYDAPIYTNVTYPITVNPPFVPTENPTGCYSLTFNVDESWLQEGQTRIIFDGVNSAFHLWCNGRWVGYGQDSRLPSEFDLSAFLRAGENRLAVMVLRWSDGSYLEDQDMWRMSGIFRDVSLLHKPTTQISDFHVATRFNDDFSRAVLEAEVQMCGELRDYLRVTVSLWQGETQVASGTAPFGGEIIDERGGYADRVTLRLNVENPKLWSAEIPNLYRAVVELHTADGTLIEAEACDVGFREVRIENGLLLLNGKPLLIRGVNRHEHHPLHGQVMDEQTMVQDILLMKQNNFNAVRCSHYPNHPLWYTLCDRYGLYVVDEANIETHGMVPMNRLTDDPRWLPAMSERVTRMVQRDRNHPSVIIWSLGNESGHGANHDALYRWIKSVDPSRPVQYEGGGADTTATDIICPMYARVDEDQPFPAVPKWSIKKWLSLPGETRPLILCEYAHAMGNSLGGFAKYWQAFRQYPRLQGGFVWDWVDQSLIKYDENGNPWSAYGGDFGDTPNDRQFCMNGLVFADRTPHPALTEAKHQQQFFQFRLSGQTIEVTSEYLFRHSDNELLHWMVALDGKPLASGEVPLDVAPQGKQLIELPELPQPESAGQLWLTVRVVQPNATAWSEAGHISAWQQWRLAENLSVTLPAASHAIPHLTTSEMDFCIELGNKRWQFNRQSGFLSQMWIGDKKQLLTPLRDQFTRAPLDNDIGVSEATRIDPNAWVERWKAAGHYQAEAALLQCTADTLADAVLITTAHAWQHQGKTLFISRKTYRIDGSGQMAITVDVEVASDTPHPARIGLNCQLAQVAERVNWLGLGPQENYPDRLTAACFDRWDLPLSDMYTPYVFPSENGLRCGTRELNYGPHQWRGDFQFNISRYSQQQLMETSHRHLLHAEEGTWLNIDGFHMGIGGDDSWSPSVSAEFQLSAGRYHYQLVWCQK
T2 sequence (Q92731 whole entry): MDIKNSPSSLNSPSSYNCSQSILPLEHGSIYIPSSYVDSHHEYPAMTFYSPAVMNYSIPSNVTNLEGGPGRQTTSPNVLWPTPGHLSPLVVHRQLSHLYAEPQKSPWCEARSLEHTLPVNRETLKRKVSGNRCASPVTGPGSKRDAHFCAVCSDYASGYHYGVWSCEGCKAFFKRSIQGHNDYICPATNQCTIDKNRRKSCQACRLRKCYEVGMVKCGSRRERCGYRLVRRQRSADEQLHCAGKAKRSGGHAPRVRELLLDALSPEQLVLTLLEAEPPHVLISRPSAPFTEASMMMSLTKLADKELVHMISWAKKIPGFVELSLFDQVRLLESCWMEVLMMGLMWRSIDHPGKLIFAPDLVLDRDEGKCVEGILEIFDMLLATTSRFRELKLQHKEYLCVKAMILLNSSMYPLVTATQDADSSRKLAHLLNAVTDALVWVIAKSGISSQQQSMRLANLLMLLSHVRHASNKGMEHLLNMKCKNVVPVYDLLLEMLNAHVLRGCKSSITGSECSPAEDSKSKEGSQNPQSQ
Genome polyprotein, sequence (P29990 2492-3391 limits assumed): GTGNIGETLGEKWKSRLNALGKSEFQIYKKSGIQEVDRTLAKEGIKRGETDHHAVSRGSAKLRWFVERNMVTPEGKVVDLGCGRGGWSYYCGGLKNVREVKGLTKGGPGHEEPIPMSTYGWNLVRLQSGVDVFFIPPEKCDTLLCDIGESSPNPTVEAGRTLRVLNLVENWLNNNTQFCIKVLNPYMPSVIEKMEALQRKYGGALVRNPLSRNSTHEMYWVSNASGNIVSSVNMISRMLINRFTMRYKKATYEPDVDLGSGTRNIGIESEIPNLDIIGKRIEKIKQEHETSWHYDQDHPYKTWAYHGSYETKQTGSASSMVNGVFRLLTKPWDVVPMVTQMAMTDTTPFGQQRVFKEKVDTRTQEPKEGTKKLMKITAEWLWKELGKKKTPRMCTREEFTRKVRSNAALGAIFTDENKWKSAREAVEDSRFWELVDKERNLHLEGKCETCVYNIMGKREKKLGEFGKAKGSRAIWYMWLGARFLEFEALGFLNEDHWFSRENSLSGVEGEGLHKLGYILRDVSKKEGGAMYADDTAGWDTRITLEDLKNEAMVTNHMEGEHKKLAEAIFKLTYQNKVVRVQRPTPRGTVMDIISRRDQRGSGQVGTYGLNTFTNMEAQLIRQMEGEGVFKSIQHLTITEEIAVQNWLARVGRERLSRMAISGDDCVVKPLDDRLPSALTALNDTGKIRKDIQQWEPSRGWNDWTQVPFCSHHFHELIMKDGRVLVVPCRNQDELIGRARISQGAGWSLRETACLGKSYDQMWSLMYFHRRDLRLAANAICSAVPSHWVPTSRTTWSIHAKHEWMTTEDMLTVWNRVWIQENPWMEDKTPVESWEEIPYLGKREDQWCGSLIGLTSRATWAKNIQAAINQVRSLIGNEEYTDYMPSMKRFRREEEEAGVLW
Induced myeloid leukemia cell differentiation protein Mcl-1, sequence (Q07820 whole entry): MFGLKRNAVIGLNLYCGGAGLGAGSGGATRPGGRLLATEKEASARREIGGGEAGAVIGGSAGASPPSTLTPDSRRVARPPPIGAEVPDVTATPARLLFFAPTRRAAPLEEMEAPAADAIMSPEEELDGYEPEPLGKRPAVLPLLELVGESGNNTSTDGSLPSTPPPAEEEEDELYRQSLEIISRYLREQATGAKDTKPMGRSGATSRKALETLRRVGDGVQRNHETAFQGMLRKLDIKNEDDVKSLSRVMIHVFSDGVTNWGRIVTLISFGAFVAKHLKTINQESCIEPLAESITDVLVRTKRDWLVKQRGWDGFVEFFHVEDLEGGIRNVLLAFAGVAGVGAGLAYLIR
FAD-linked sulfhydryl oxidase ALR, sequence (P55789 whole entry): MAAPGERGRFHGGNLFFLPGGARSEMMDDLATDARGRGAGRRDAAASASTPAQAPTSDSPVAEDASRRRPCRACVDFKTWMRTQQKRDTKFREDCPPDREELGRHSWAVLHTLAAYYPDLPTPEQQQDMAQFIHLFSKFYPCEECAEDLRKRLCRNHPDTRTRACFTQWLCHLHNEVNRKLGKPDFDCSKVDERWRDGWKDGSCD
Melanocortin receptor 4, sequence (P32245 whole entry): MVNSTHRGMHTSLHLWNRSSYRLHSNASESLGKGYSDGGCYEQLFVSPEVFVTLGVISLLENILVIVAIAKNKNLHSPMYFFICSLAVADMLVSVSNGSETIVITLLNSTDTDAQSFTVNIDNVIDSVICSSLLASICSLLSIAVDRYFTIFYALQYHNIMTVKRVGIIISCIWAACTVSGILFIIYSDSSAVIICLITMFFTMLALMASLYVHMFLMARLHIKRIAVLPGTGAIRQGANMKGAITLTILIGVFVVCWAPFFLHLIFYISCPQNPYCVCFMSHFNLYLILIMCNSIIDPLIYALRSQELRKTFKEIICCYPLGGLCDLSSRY

O=C(Cn1sc2ccccc2c1=O)Nc1ccc(C(F)(F)F)cc1
IC50 (Hexokinase): > 25 µM (inactive)

COc1ccc(CCN2C(=O)c3[nH]nc(-c4ccccc4O)c3C2c2cccc(O)c2)cc1OC (stereo not drawn)
IC50 [1]: 2.7 µM (active) | AC50 [2]: 8.34 µM (active) | AC50 [3]: 17.6 µM (active) | AC50 [4]: 2.44 µM (active)

Nn1c(S)nnc1Cc1ccc(Br)cc1
IC50 [5]: > 50 µM (not active) | IC50 [6]: > 100 µM (inactive) | IC50 [7]: > 50 µM (not active) | IC50 [8]: 3.6 µM (active)

O=C(COc1ccc(Cl)cc1)N/N=C/c1cccc2cccnc12
IC50 (Beta-galactosidase): > 66.6 µM (inactive)

Cc1cccc(C(=O)Nc2cc(Cl)ccc2C(=O)O)c1
IC50 (Hexokinase): 22.3 µM (active)

COc1ccc(N2Cc3cccc(C(=O)N4CCN(C(=O)c5ccco5)CC4)c3C2=O)cc1
IC50 (Estrogen receptor beta [9]): 5.99 µM (active) | IC50 [10]: 9.04 µM (active) | IC50 [11]: 1.43 µM (active) | IC50 [12]: 4.24 µM (active) | IC50 [13]: 3.1 µM (active) | IC50 [14]: 10.2 µM (active) | IC50 (Estrogen receptor): 9.8 µM (active) | IC50 (Estrogen receptor beta [15]): > 50 µM (not active)

Cn1c(CSc2nc3ccccc3s2)n[nH]c1=S
IC50 [6]: > 100 µM (inactive) | AC50 [16]: 1.82 µM (active) | IC50 [8]: 4.35 µM (active)

CCOC(=O)C1=C(Cc2ccc(F)cc2)C(=O)c2ccccc2C1=O
IC50 (Genome polyprotein): 86.4 µM (active) | IC50 (Hexokinase HKDC1): 11.4 µM (active) | IC50 (Beta-galactosidase): > 66.6 µM (inactive) | AC50 [17]: 13.4 µM (active) | CC50 (Vero): > 40 µM (active)

OC(CNCCc1ccc(C(F)(F)F)cc1)COC(c1ccccc1)c1ccccc1 (stereo not drawn)
IC50 [1]: 2.65 µM (active) | CC50 [18]: 24.5 µM (active) | EC50 (Melanocortin receptor 4): > 89.2 µM (inactive)

Cc1ccc(C2CC(=O)N3CN(c4ccc(Br)cc4)CSC3=C2C#N)o1 (stereo not drawn)
IC50 [19]: 9.58 µM (active) | IC50 (NS3): 7.09 µM (active) | IC50 [20]: 14 µM (active)
